Laboratory results published in patent publication US10323038B2, “Pyrazole compounds and methods of making and using same” (ABIDE THERAPEUTICS, INC., priority 2015, dated 2019).

Legend:
MAGL = MAGL (Mus musculus (Mouse), UniProt O35678); test: In vitro competitive activity-based protein profiling, MAGL (mouse); assay type: biochemical; conditions: for inhibition at 1 µM: read-out: MAGL % inh. 1 μM (mouse)
How it was run: (§1)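 Residual MAGL and FAAH activity came from in-gel fluorescence after competition between inhibitor (30 min preincubation, 37° C) and the activity-based probe FP-Rh or HT-01 (30 min, 37° C) in mouse or human tissue or cell proteomes.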

FAAH = FAAH (Mus musculus (Mouse), UniProt O08914); test: In vitro competitive activity-based protein profiling, FAAH (mouse); assay type: biochemical; conditions: for inhibition at 1 µM: read-out: FAAH % inh. 1 μM (mouse)
How it was run: as §1

MAGL, sequence (O35678 whole entry): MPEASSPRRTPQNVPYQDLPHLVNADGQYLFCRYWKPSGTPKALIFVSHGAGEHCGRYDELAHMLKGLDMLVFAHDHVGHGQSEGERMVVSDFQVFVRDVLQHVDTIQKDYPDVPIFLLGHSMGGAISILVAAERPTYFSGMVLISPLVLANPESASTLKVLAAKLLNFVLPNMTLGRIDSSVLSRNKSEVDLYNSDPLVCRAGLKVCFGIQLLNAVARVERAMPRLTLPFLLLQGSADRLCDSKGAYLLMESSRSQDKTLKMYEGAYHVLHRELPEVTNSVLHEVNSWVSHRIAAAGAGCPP
FAAH, sequence (O08914 whole entry): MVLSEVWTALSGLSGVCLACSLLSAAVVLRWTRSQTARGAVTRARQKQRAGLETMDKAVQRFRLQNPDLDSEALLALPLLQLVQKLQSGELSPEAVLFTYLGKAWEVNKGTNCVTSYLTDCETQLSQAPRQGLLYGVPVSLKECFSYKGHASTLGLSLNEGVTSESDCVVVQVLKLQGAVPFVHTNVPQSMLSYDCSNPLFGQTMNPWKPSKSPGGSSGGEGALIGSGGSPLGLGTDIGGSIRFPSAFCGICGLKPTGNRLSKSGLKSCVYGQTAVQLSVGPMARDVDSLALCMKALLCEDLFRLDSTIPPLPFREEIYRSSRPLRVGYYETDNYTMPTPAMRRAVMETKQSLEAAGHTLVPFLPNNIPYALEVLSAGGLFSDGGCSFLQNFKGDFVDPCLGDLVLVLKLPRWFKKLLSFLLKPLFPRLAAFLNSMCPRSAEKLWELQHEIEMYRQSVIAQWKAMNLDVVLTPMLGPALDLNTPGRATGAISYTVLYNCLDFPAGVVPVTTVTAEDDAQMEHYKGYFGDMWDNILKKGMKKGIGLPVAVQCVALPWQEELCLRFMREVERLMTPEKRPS

SMILES: CC(=O)N(C)c1cnn(C(=O)N2CCN(Cc3ccc(Cl)cc3)CC2)c1 [Example 194, N-(1-(4-(4-chlorobenzyl)piperazine-1-carbonyl)-1H-pyrazol-4-yl)-N-methylacetamide]
- IC50 (MAGL): 100 to 1000 nM
- inhibition at 1 µM (MAGL): ≥ 75%
- IC50 (FAAH): 1000 to 10000 nM
- inhibition at 1 µM (FAAH): ≥ 75%

SMILES: CC(=O)N(C)c1cnn(C(=O)N2CCN(Cc3ccc(C(F)(F)F)cc3N3C4CCC3COC4)CC2)c1 [Example 195, N-(1-(4-(2-(3-oxa-8-azabicyclo[3.2.1]octan-8-yl)-4-(trifluoromethyl)benzyl)piperazine-1-carbonyl)-1H-pyrazol-4-yl)-N-methylacetamide]
- IC50 (MAGL): ≤ 100 nM
- inhibition at 1 µM (MAGL): ≥ 75%
- IC50 (FAAH): 1000 to 10000 nM
- inhibition at 1 µM (FAAH): 0 to 25%

SMILES: CC(=O)N(C)c1cnn(C(=O)N2CCN(Cc3ccc(Cl)c(Cl)c3)CC2)c1 [Example 196, N-(1-(4-(3,4-dichlorobenzyl)piperazine-1-carbonyl)-1H-pyrazol-4-yl)-N-methylacetamide]
- inhibition at 1 µM (MAGL): ≥ 75%
- IC50 (FAAH): 100 to 1000 nM
- inhibition at 1 µM (FAAH): ≥ 75%

SMILES: CC(=O)N(C)c1cnn(C(=O)N2CCN(Cc3ccc(N4CCCC4)cc3)CC2)c1 [Example 197, N-methyl-N-(1-(4-(4-(pyrrolidin-1-yl)benzyl)piperazine-1-carbonyl)-1H-pyrazol-4-yl)acetamide]
- IC50 (MAGL): 100 to 1000 nM
- inhibition at 1 µM (MAGL): ≥ 75%
- IC50 (FAAH): 100 to 1000 nM
- inhibition at 1 µM (FAAH): ≥ 75%

SMILES: CC(=O)N(C)c1cnn(C(=O)N2CCN(Cc3ccc(C(F)(F)F)cc3)CC2)c1 [Example 198, N-methyl-N-(1-(4-(4-(trifluoromethyl)benzyl)piperazine-1-carbonyl)-1H-pyrazol-4-yl)acetamide]
- inhibition at 1 µM (MAGL): ≥ 75%
- IC50 (FAAH): 100 to 1000 nM
- inhibition at 1 µM (FAAH): ≥ 75%

SMILES: CC(=O)N(C)c1cnn(C(=O)N2CCN(Cc3ccc(CN4CCOCC4)cc3)CC2)c1 [Example 199, N-methyl-N-(1-(4-(4-(morpholinomethyl)benzyl)piperazine-1-carbonyl)-1H-pyrazol-4-yl)acetamide]
- inhibition at 1 µM (MAGL): 50 to 75%
- inhibition at 1 µM (FAAH): 0 to 25%

SMILES: CC(=O)N(C)c1cnn(C(=O)N2CCN(Cc3ccc(N4CCOCC4)cc3)CC2)c1 [Example 200, N-methyl-N-(1-(4-(4-morpholinobenzyl)piperazine-1-carbonyl)-1H-pyrazol-4-yl)acetamide]
- inhibition at 1 µM (MAGL): 50 to 75%
- inhibition at 1 µM (FAAH): 0 to 25%

SMILES: CC(=O)N(C)c1cnn(C(=O)N2CCN(Cc3ccc(-c4ccccc4)cc3C)CC2)c1 [Example 201, N-methyl-N-(1-(4-((3-methylbiphenyl-4 yl)methyl)piperazine-1-carbonyl)-1H-pyrazol-4-yl)acetamide]
- IC50 (MAGL): ≤ 100 nM
- inhibition at 1 µM (MAGL): ≥ 75%
- IC50 (FAAH): ≤ 100 nM
- inhibition at 1 µM (FAAH): ≥ 75%

SMILES: CC(=O)N(C)c1cnn(C(=O)N2CCN(Cc3cccc(Oc4ccccc4)c3)CC2)c1 [Example 202, N-methyl-N-(1-(4-(3-phenoxybenzyl)piperazine-1-carbonyl)-1H-pyrazol-4-yl)acetamide]
- IC50 (MAGL): ≤ 100 nM
- inhibition at 1 µM (MAGL): ≥ 75%
- IC50 (FAAH): ≤ 100 nM
- inhibition at 1 µM (FAAH): ≥ 75%

SMILES: CC(=O)N(C)c1cnn(C(=O)N2CCN(Cc3ccc(N4CCOCC4)cc3Cl)CC2)c1 [Example 203, N-(1-(4-(2-chloro-4-morpholinobenzyl)piperazine-1-carbonyl)-1H-pyrazol-4-yl)-N-methylacetamide]
- IC50 (MAGL): ≤ 100 nM
- inhibition at 1 µM (MAGL): ≥ 75%
- IC50 (FAAH): 100 to 1000 nM
- inhibition at 1 µM (FAAH): ≥ 75%

SMILES: CC(=O)N(C)c1cnn(C(=O)N2CCN(Cc3ccc(N4CCOCC4)cc3C)CC2)c1 [Example 204, N-methyl-N-(1-(4-(2-methyl-4-morpholinobenzyl)piperazine-1-carbonyl)-1H-pyrazol-4-yl)acetamide]
- IC50 (MAGL): 100 to 1000 nM
- inhibition at 1 µM (MAGL): ≥ 75%
- IC50 (FAAH): 100 to 1000 nM
- inhibition at 1 µM (FAAH): ≥ 75%

SMILES: CC(=O)N(C)c1cnn(C(=O)N2CCN(Cc3cccc(F)c3)CC2)c1 [Example 205, N-(1-(4-(3-fluorobenzyl)piperazine-1-carbonyl)-1H-pyrazol-4-yl)-N-methylacetamide]
- IC50 (MAGL): 100 to 1000 nM
- inhibition at 1 µM (MAGL): ≥ 75%
- IC50 (FAAH): 100 to 1000 nM
- inhibition at 1 µM (FAAH): ≥ 75%

SMILES: CC(=O)N(C)c1cnn(C(=O)N2CCN(Cc3cccc(C)c3)CC2)c1 [Example 206, N-methyl-N-(1-(4-(3-methylbenzyl)piperazine-1-carbonyl)-1H-pyrazol-4-yl)acetamide]
- IC50 (MAGL): ≤ 100 nM
- inhibition at 1 µM (MAGL): ≥ 75%
- IC50 (FAAH): 100 to 1000 nM
- inhibition at 1 µM (FAAH): ≥ 75%

SMILES: COc1cccc(CN2CCN(C(=O)n3cc(N(C)C(C)=O)cn3)CC2)c1 [Example 207, N-(1-(4-(3-methoxybenzyl)piperazine-1-carbonyl)-1H-pyrazol-4-yl)-N-methylacetamide]
- inhibition at 1 µM (MAGL): ≥ 75%
- inhibition at 1 µM (FAAH): ≥ 75%

SMILES: CC(=O)N(C)c1cnn(C(=O)N2CCN(Cc3cccc(N4CCCC4)c3)CC2)c1 [Example 208, N-methyl-N-(1-(4-(3-(pyrrolidin-1-yl)benzyl)piperazine-1-carbonyl)-1H-pyrazol-4-yl)acetamide]
- IC50 (MAGL): ≤ 100 nM
- inhibition at 1 µM (MAGL): ≥ 75%
- IC50 (FAAH): 100 to 1000 nM
- inhibition at 1 µM (FAAH): ≥ 75%

SMILES: CC(=O)N(C)c1cnn(C(=O)N2CCN(Cc3cccc(C(F)(F)F)c3)CC2)c1 [Example 209, N-methyl-N-(1-(4-(3-(trifluoromethyl)benzyl)piperazine-1-carbonyl)-1H-pyrazol-4-yl)acetamide]
- IC50 (MAGL): ≤ 100 nM
- inhibition at 1 µM (MAGL): ≥ 75%
- IC50 (FAAH): ≤ 100 nM
- inhibition at 1 µM (FAAH): ≥ 75%

SMILES: CC(=O)N(C)c1cnn(C(=O)N2CCN(Cc3cccc(N4CCOCC4)c3)CC2)c1 [Example 210, N-methyl-N-(1-(4-(3-morpholinobenzyl)piperazine-1-carbonyl)-1H-pyrazol-4-yl)acetamide]
- inhibition at 1 µM (MAGL): ≥ 75%
- inhibition at 1 µM (FAAH): 0 to 25%

SMILES: CC(=O)N(C)c1cnn(C(=O)N2CCN(Cc3ccccc3F)CC2)c1 [Example 211, N-(1-(4-(2-fluorobenzyl)piperazine-1-carbonyl)-1H-pyrazol-4-yl)-N-methylacetamide]
- inhibition at 1 µM (MAGL): ≥ 75%
- inhibition at 1 µM (FAAH): ≥ 75%

SMILES: CC(=O)N(C)c1cnn(C(=O)N2CCN(Cc3ccccc3C)CC2)c1 [Example 212, N-methyl-N-(1-(4-(2-methylbenzyl)piperazine-1-carbonyl)-1H-pyrazol-4-yl)acetamide]
- IC50 (MAGL): 100 to 1000 nM
- inhibition at 1 µM (MAGL): ≥ 75%
- IC50 (FAAH): 100 to 1000 nM
- inhibition at 1 µM (FAAH): ≥ 75%

SMILES: COc1ccccc1CN1CCN(C(=O)n2cc(N(C)C(C)=O)cn2)CC1 [Example 213, N-(1-(4-(2-methoxybenzyl)piperazine-1-carbonyl)-1H-pyrazol-4-yl)-N-methylacetamide]
- inhibition at 1 µM (MAGL): ≥ 75%
- inhibition at 1 µM (FAAH): 0 to 25%

SMILES: CC(=O)N(C)c1cnn(C(=O)N2CCN(Cc3ccccc3C(F)(F)F)CC2)c1 [Example 214, N-methyl-N-(1-(4-(2-(trifluoromethyl)benzyl)piperazine-1-carbonyl)-1H-pyrazol-4-yl)acetamide]
- IC50 (MAGL): ≤ 100 nM
- inhibition at 1 µM (MAGL): ≥ 75%
- IC50 (FAAH): ≤ 100 nM
- inhibition at 1 µM (FAAH): ≥ 75%

SMILES: CC(=O)N(C)c1cnn(C(=O)N2CCN(Cc3ccccc3N3CCCC3)CC2)c1 [Example 215, N-methyl-N-(1-(4-(2-(pyrrolidin-1-yl)benzyl)piperazine-1-carbonyl)-1H-pyrazol-4-yl)acetamide]
- inhibition at 1 µM (MAGL): ≥ 75%
- inhibition at 1 µM (FAAH): 25 to 50%

SMILES: CC(=O)N(C)c1cnn(C(=O)N2CCN(Cc3ccccc3N3CCOCC3)CC2)c1 [Example 216, N-methyl-N-(1-(4-(2-morpholinobenzyl)piperazine-1-carbonyl)-1H-pyrazol-4-yl)acetamide]
- inhibition at 1 µM (MAGL): ≥ 75%
- inhibition at 1 µM (FAAH): 0 to 25%

SMILES: CN(c1cnn(C(=O)N2CCN(Cc3ccc(C(F)(F)F)cc3N3CCCC3)CC2)c1)S(C)(=O)=O [Example 218, N-methyl-N-(1-(4-(2-(pyrrolidin-1-yl)-4-(trifluoromethyl)benzyl)piperazine-1-carbonyl)-1H-pyrazol-4-yl)methanesulfonamide]
- IC50 (MAGL): 100 to 1000 nM
- inhibition at 1 µM (MAGL): ≥ 75%
- IC50 (FAAH): 1000 to 10000 nM
- inhibition at 1 µM (FAAH): 25 to 50%

SMILES: COc1cc(-c2ccccc2)ccc1CN1CCN(C(=O)n2cc(NS(C)(=O)=O)cn2)CC1 [Example 220, N-(1-(4-((3-methoxy-[1,1′-biphenyl]-4-yl)methyl)piperazine-1-carbonyl)-1H-pyrazol-4-yl)methanesulfonamide]
- IC50 (MAGL): 100 to 1000 nM
- inhibition at 1 µM (MAGL): ≥ 75%
- IC50 (FAAH): ≤ 100 nM
- inhibition at 1 µM (FAAH): ≥ 75%

SMILES: CS(=O)(=O)Nc1cnn(C(=O)N2CCN(Cc3ccc(-c4ccccc4)cc3Cl)CC2)c1 [Example 221, N-(1-(4-((3-chloro-[1,1′-biphenyl]-4-yl)methyl)piperazine-1-carbonyl)-1H-pyrazol-4-yl)methanesulfonamide]
- IC50 (MAGL): 100 to 1000 nM
- inhibition at 1 µM (MAGL): ≥ 75%
- IC50 (FAAH): ≤ 100 nM
- inhibition at 1 µM (FAAH): ≥ 75%

SMILES: CC(=O)N(C)c1cnn(C(=O)N2CC3CN(Cc4ccc(-c5ccccc5)cc4C)CC3C2)c1 (stereo not drawn) [Example 223, N-methyl-N-(1-(5-((3-methyl-[1,1′-biphenyl]-4-yl)methyl)octahydropyrrolo[3,4-c]pyrrole-2-carbonyl)-1H-pyrazol-4-yl)acetamide]
- IC50 (MAGL): ≤ 100 nM
- inhibition at 1 µM (MAGL): ≥ 75%
- IC50 (FAAH): ≤ 100 nM
- inhibition at 1 µM (FAAH): ≥ 75%

SMILES: CS(=O)(=O)Nc1cnn(C(=O)N2CCN(Cc3ccc(-c4ccccc4)cc3OCc3ccccc3)CC2)c1 [Example 224, N-(1-(4-((3-(benzyloxy)-[1,1′-biphenyl]-4-yl)methyl)piperazine-1-carbonyl)-1H-pyrazol-4-yl)methanesulfonamide]
- inhibition at 1 µM (MAGL): ≥ 75%
- inhibition at 1 µM (FAAH): 50 to 75%

SMILES: CC(=O)N(C)c1cnn(C(=O)N2CCC3(CC2)CN(Cc2ccc(-c4ccccc4)cc2C)C3)c1 [Example 226, N-methyl-N-(1-(2-((3-methyl-[1,1-biphenyl]-4-yl)methyl)-2,7-diazaspiro[3.5]nonane-7-carbonyl)-1H-pyrazol-4-yl)acetamide]
- IC50 (MAGL): ≤ 100 nM
- inhibition at 1 µM (MAGL): ≥ 75%
- IC50 (FAAH): 100 to 1000 nM
- inhibition at 1 µM (FAAH): ≥ 75%
